Entries after “also recorded” stand apart in the source; their conditions may differ.
Legend:
[1] = test system: CCl4 liver fibrosis animal; test: CCl4 (carbon tetrachloride)-induced liver fibrosis animal model; format: in vivo, Actin-DsRed mice
Method: Hepatocytes appear red in Actin-DsRed mice (Stock no. #006051, Jackson Laboratory (Bar Harbor, USA)). In order to induce liver fibrosis in this mouse, CCl4 (carbon tetrachloride) was dissolved in corn oil and injected intraperitoneally twice a week at a concentration of 20% for a total of 6 weeks. Three weeks after start of CCl4 administration, vehicle and BC-KI-00053 (100 mg/kg) were administered orally, daily for three weeks. For vehicle, corn oil:polyethylene glycol 400:Tween 80:methyl cellulose (1%)=20:30:1:49 was used.
The degree of fibrosis on the surface and inside (area with a depth of 30-50 μm) of liver was detected by the Second Harmonic Generation (SHG) technique of intravial imaging (Excitation: 780 nm, Detection: 390 nm).

[2] = test system: liver ischemia-reperfusion injury model; test: Liver ischemia-reperfusion injury model; format: in vivo, CX3CR1-GFP mice; details: 100 mg/kg oral once daily, 3 days; 24 hours of reperfusion
Method: A liver ischemia-reperfusion injury model was prepared using CX3CR1-GFP mice to investigate the effect of inhibitors of KRS translocation to the plasma membrane on the monocyte infiltration during ischemic immune responses. Monocytes, macrophages and Kupffer's cells appear green in CX3CR1-GFP mice. Mice were orally administered with vehicle or BC-KI-00053 (100 mg/kg, dissolved in vehicle, once daily) for a total of three days beginning two days before imaging (D-2, D-1, D-0). For vehicle, corn oil:polyethylene glycol 400: Tween 80: methyl cellulose (1%)=20:30:1:49 was used. On day 3 of oral administration (D-0), triad (bile duct, hepatic artery, […]) occlusion was performed using a 6-0 suture as shown in FIG. 8a. Triad occlusion was performed for 30 minutes to induce acute inflammation, and 3 g of Eppendorf tubes were suspended from both ends of the suture. Suture was removed and the ischemic inflammation site was observed immediately after reperfusion (0 hour) and 24 hours later. At this time, blood vessels were labeled with Alexa Flour 555-bound anti-CD31 antibody for repeated imaging (identifiable as red). Two-photon microscope was used as an imaging equipment.

RAW 264.7 cells = test: Transwell migration assay of monocytes/macrophages; format: cell-based; details: laminin 421 1 μg/ml, 30 nM-3 μM, 24 hours, concentration-dependent
Method: Among several extracellular matrix (ECM), it was examined which ECM promotes the migration and infiltration of immune cells, typically monocytes/macrophages. A transwell migration assay was performed using collagen (Col), fibronectin (FN) and laminin (LN) as extracellular matrices, and detailed methods were as follows. Transwells (Corning, #3421-5 mm) were coated with gelatin (0.5 mg/ml) and RAW 264.7 cells (1×10^5 cells/well) were seeded into the top chambers. Serum free DMEM (500 μl) containing 10 μg/ml of laminin (laminin mixture, Biolamina), fibronectin or collagen, respectively, was placed in the bottom chambers. After 24 hours, cells were fixed with 70% methanol for 30 minutes and stained with 50% hematoxylin for 30 minutes. After removing non-migrating cells from the top of the membrane with a cotton swab, the membrane was taken and mounted on the slide. Migrating cells on the underside of the membrane were observed and quantified under a high magnification microscope.
Effect of laminin subtypes on the immune cell migration and infiltration was evaluated. A transwell migration assay was performed in the same manner as in Example 1 using LN111, LN211, LN221, LN411, LN421, LN511, and LN521 as various laminin subtype proteins (purchased from Biolamina). Specific sequences of laminin subtypes are referred to α4 chain of SEQ ID NO:4, α2 chain of SEQ ID NO: 10, α5 chain of SEQ ID NO: 11, β2 chain of SEQ ID NO:6, β1 chain of SEQ ID NO: 12, γ1 chain of SEQ ID NO: 8. according to the chain forming each laminin subtype,
For each of the transformed macrophages, a transwell migration assay was performed in the same manner as in Example 1 using 1 μg/ml of laminin 421.
Thus identified agents as inhibiting the translocation of KRS to the plasma membrane was added to the LN421-treated macrophages to perform a transwell migration assay. […] Migrating cells on the underside of the membrane were observed and quantified under a high magnification microscope. […]

[3] = CCl4 6 weeks, BC-KI-00053 100 mg/kg oral daily for 3 weeks
[4] = normal animal (corn oil) + BC-KI-00053 100 mg/kg oral daily 3 weeks

With COc1ccc(CCN(Cc2ccc(C(=O)O)cc2)c2nc3cccc(F)c3s2)cc1 [BC-KI-00053, 4-({(7-fluorobenzo[d]thiazol-2-yl)[2-(4-methoxyphenyl)ethyl]amino}methyl)benzoic acid] the “fibrosis in the surface and inside the liver (SHG imaging)” value [1, 3] was “greatly reduced”, the hepatocyte necrosis [1, 3] was “noticeably reduced” and the “other symptoms in the liver” value [1, 4] was “no other symptoms”. The weight loss [1, 4] was “no weight loss”, the in vivo tolerability ([1]; normal animal + BC-KI-00053 100 mg/kg) was “innocuous” and the “monocyte/macrophage infiltration into occluded liver area” value [2] was “significantly reduced”. The LN421-specific monocyte/macrophage migration (RAW 264.7 cells) was “noticeably suppressed; also recorded: significantly inhibited”.

— patent publication US11378572B2, “Therapeutic agent for immune cell migration-caused disease and method for screening same” (ZYMEDI CO., LTD., priority 2017, dated 2022)
